Source: article doi:10.1101/2021.04.29.441652v1 (biorxiv, 2021)

Target: human σ2 receptor (TMEM97) (Homo sapiens, UniProt Q5BJF2)
Assay: biochemical
Format: Expi293 membranes
Details: read-out: % of control remaining

Sequence of human σ2 receptor (TMEM97) (Q5BJF2 whole entry): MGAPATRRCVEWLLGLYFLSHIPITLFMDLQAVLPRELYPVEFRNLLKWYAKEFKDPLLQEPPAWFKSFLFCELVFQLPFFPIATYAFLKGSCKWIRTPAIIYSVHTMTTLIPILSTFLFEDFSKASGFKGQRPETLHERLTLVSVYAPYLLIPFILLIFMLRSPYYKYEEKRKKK

SMILES | remaining activity at 1 µM [%]
CC(C)CN1CCC(NC(=O)NNC(=O)C(=O)NC2CC2)CC1 [ZINC000045463977] | 107
CCCn1c(C)cc(/C=C(/C#N)C(=O)NCCN(C)Cc2ccccc2)c1C [ZINC000064804934] | 85
CC[C@@H](C)NC(=O)[C@@H](C)N1CCC(c2c[nH]c3ccccc23)CC1 [ZINC000073649189] | 74.2
C[C@H](C(=O)NCc1cc(Br)cs1)N1CCCCCC1 [ZINC000074484650] | 86.9
c1cncc(-c2nc(N3CCC[C@H](N4CCCC4)C3)c3ccccc3n2)c1 [ZINC000076836015] | 60.5
Cc1noc(-c2cccnc2NC2CCC(N3CCCCC3)CC2)n1 (centres unmarked) [ZINC000080247921] | 24.7
c1ccc(-c2csc(CN3CCC4(C3)OCCO4)c2)cc1 [ZINC000093013680] | 89.6
CC1CCC(N2CCN(CCOC(C)C)CC2)CC1 (centres unmarked) [ZINC000115566238] | 18.2
O=C(Nc1cccc(OC(F)(F)F)c1)C(=O)N1CCC[C@@H](N2CCCC2)CC1 [ZINC000120571916] | 17.7
N#Cc1csc(CN2CCC[C@H]2Cc2ccccc2)c1 [ZINC000124982852] | 89.7
COc1ccccc1O[C@H](C)CN[C@@H](C)c1ccccc1OC [ZINC000129576345] | 14.2
CN1CCN(c2ncc(CN3CCN(CC4CC4)CC3)cn2)CC1 [ZINC000130668661] | 68.6
C[C@H](Cn1cc(Br)cn1)NCc1cn2cc(Cl)ccc2n1 [ZINC000131571127] | 76.6
CN(C(=O)C[C@@H]1CSCCN1)[C@@H]1CCCN(c2cccnn2)C1 [ZINC000133744458] | 65.7
C[C@@H](Cn1cc(Br)cn1)NCCOc1ccc2c(c1)OCO2 [ZINC000133991118] | 65.4
O=C(CCc1cc(Br)ccc1F)N1CC[C@@H](CN2CCCC2)C1 [ZINC000135482356] | 21.7
O=C(NCc1ccc(F)cc1C(F)(F)F)[C@@H]1CC12CCNCC2 [ZINC000136880129] | 53.9
COC(=O)[C@@H](C)CS(=O)(=O)N[C@@H]1CCN(CC2CCCC2)C1 [ZINC000152090354] | 44.7
O=C(CN1CC[C@]2(CCOC2)C1)N[C@@H](Cc1ccccc1)c1ccccc1 [ZINC000153400973] | 99.4
Cc1cc(C(C)(C)C)ccc1OC[C@@H](O)CN1CC[C@]2(CCOC2)C1 [ZINC000153451054] | 17.2
C[C@H](N[C@@H](C)CN1CCN(C)CC1)c1ccc(-c2ccccc2)o1 [ZINC000155112667] | 33.8
CS[C@@H]1CCC[C@H](NC(=O)NC2CCN([C@@H]3CCCC[C@@H]3O)CC2)C1 [ZINC000155998528] | 30.9
C[C@H]1C[C@@H](NC(=O)C(=O)Nc2cnn(CC(F)F)c2)CN1C1CC1 [ZINC000158577469] | 111
CC(C)[C@H](C(=O)NC[C@H](C[C@@H](C)O)c1ccccc1)N1CCCCC1 [ZINC000159130997] | 108
FC(F)(F)c1ccc(-c2nc(CN3CC[C@H](N4CCCC4)C3)cs2)cc1 [ZINC000170742095] | 29.7
O=C(Nc1ccc2ncsc2c1)C(=O)N1CCCN(C2CCCC2)CC1 [ZINC000172648663] | 96.3
COC(=O)[C@@H](NCC[C@H](C)N(C)Cc1ccccc1)c1cccc(C#N)c1 [ZINC000176805277] | 41.6

SMILES | remaining activity at 1 µM [%]
C[C@H](c1ccccn1)N1CC=C(c2ccc(O)cc2)CC1 [ZINC000176995469] | 61.4
O=C1Nc2ccccc2C12CCC(NCC1(O)CCOCC1)CC2 (centres unmarked) [ZINC000178638284] | 111
CCN(CC)[C@H]1CCN(Cc2ncc(Cl)cc2Cl)C1 [ZINC000182372239] | 34.6
C[C@H](CCNC(=O)N1CCO[C@H]([C@@H]2CCCO2)C1)N1CCCCC1 [ZINC000182663590] | 98
Cc1ccc([N+](=O)[O-])cc1[C@H](C)N1C[C@H]2CCC[C@@H]2C1 [ZINC000182842742] | 36.1
N#Cc1ccccc1NC(=O)CCN1CCC(O)(c2c(F)cccc2F)CC1 [ZINC000186482223] | 95.3
C[C@H](Cn1ncc2ccccc2c1=O)N[C@H]1CC[C@H](Cc2ccccc2)C1 [ZINC000188287346] | 0.9
O=C(NCCc1ccc(F)c(Br)c1)[C@H]1C[C@H](F)CN1 [ZINC000188412270] | 106
O=C1Nc2ccccc2CC[C@H]1N1CC[C@@H](COCc2ccccc2)C1 [ZINC000192043753] | 52.9
COc1ccc2ccccc2c1-c1cc(CN2CCN(C[C@@H](C)O)C[C@H]2C)on1 [ZINC000192810020] | 89
CC(C)(C)N1CCC(NC(=O)c2ncccc2Br)CC1 [ZINC000194878845] | 109
Cc1ccccc1NC(=O)CN1CCC[C@@H]1C[C@H](C)O [ZINC000228149300] | 113
N[C@@H](CC(=O)Nc1cccc(C(=O)N2CCCC2)c1)c1ccccc1 [ZINC000237909071] | 89
C[C@@H]1CCCN1CC(=O)NCC(=O)N[C@H](C)c1ccc(F)cc1 [ZINC000245453841] | 114
CC[C@H](C)CNC[C@H]1CCC[C@H]1NS(C)(=O)=O [ZINC000245533477] | 98.5
CCN(C[C@@H]1CCN(Cc2ccccc2)C1)C(=O)[C@H]1CC(=O)N(C2CCCC2)C1 [ZINC000246894550] | 72.6
COC(=O)C[C@H]1CCCN1C[C@@H](O)Cc1ccc(C(F)(F)F)cc1 [ZINC000247001079] | 61.2
O=C1[C@H](N2C[C@@H]3CCC[C@H]3C2)CCN1c1ccccc1Cl [ZINC000247015101] | 73
CN1CCC[C@@H]2CN(Cn3ccc(-c4ccc(Br)cc4)n3)CC[C@H]21 [ZINC000247147334] | 104
CN(C[C@@H](O)CCc1ccccc1)[C@H]1CCN(c2ccccc2F)C1=O [ZINC000248559983] | 87.4
C[C@H]1CCN(CC#Cc2cccc(Cl)c2)[C@H]1CO [ZINC000248917461] | 103
O[C@]1(CN[C@@H]2CC[C@@H](Cc3ccccc3)C2)CCSC1 [ZINC000249076038] | 30.5
C[C@H]1CN/C(=N/Cc2cccc(OCc3ccccc3)c2)N1 [ZINC000261552362] | 56.1
C=CCOCC(=O)N(CCN)CCc1ccccc1 [ZINC000261774189] | 108
COc1ccc(Br)cc1C/N=C1/NC[C@@H](C)N1 [ZINC000262658947] | 45.4
C=C(C)CN/C(N)=N/[C@H]1C[C@H](c2cccc(F)c2)C1 [ZINC000262856881] | 6.4
Cc1ccc(NC(=O)CN2CCC[C@@H](C3OCCO3)C2)cc1Cl [ZINC000263644082] | 83.4

SMILES | remaining activity at 1 µM [%]
COC1CCC(N(C)CC(=O)Nc2ccc3ccccc3c2)CC1 (centres unmarked) [ZINC000265181994] | 102
Cc1cccnc1[C@H](NC(=O)N1CCN(C2CCC2)CC1)C(C)C [ZINC000265281429] | 97.5
N/C(=N\Cc1cccc2c1OCCCO2)NC1CCCC1 [ZINC000269280100] | 11.1
COCC1(O)CCN(C[C@@H](O)Cn2cnc3cc(C)c(C)cc32)CC1 [ZINC000270395954] | 121
CCCN(C)C[C@H]1CCN([C@H](C)C(=O)c2c[nH]c3ncccc23)C1 [ZINC000271284821] | 28.3
Cc1c(Br)cccc1C(=O)N1CC[C@@H]2CCN(C)C[C@H]21 [ZINC000272592294] | 79.1
CN1CCC(C)(CNC(=O)Nc2ccc(Br)nc2)CC1 [ZINC000272631760] | 91.2
CC[C@@]1(C)Oc2ccc(NC(=O)C(=O)NC[C@@H]3CCN(C)C3)cc2O1 [ZINC000276781830] | 97.6
COCCOc1ccc(NC(=O)C(=O)N2C[C@H]3CN(C)C[C@H]3C2)cn1 [ZINC000279187431] | 105
Cc1noc(C)c1CNC(=O)C(=O)N1CCN(C2CCCC2)CC1 [ZINC000283462313] | 98.5
COc1ccc(-c2ccccc2)cc1CNCCC1(O)CCOCC1 [ZINC000285662957] | 17.5
CCc1cccc(C)c1NC(=O)CN1C[C@@H](N2CCCC2)C[C@H]1C [ZINC000285725404] | 115
CNC(=O)CC[C@H]1CCCCN1Cc1cc(-c2ccccc2)on1 [ZINC000286502332] | 139
COC(=O)c1cccc(S(=O)(=O)N2CC[C@@H](N3CCCC3)[C@@H]2C)c1 [ZINC000286616311] | 75
CCc1nn(C)c(Cl)c1C(=O)N1CC[C@@H](N2CCNCC2)C1 [ZINC000286782676] | 132
Cc1c(CNC(=O)C(=O)N2CC[C@@H](C3CCN(C)CC3)C2)cnn1C [ZINC000287105318] | 117
O[C@H]1c2ccccc2C[C@H]1N1Cc2cccc(Cl)c2C1 [ZINC000287374567] | 114
COC(=O)C[C@H]1CCCN1C[C@@H](O)Cc1cccc(Cl)c1 [ZINC000287581634] | 111
C[C@@H]1COCC[C@@H]1NCCc1c[nH]c2cccc(Br)c12 [ZINC000289897491] | 51
CS[C@@H]1CCN(Cc2cnc(C)n2-c2ccccc2)C1 [ZINC000295103757] | 114
CS[C@H]1CCN([C@H](C)c2nc(-c3ccccc3C)no2)C1 [ZINC000296435291] | 106
C[C@H](COc1ccc(Cl)c(Cl)c1)N[C@@H](C)Cn1cncn1 [ZINC000296612417] | 59.2
CN(CCCN(C)C(=O)C(=O)N(CCO)C1CC1)Cc1ccco1 [ZINC000297448741] | 105
O=C(CN1CCC(c2nc3cc(Cl)ccc3o2)CC1)N1CCC1 [ZINC000298791523] | 89
c1ccc(SC[C@@H]2CCN(c3cc(N4CCCCC4)ncn3)C2)cc1 [ZINC000301468116] | 88.5
CC(C)CC(=O)N[C@@H](C(=O)N1CCC[C@H](N2CCCC2)C1)c1ccccc1 [ZINC000332414923] | 87.2
